Results from patent US5352707A, “Method for treating airway congestion” (Harbor Branch Oceanographic Institution, Inc., priority 1992, dated 1994).

Experiments:
H3 receptor = target: T1, H3 receptor (Cavia porcellus, UniProt Q9JI35); assay: H3 Receptor Binding Assay ([3H]R-α-methylhistamine, guinea pig brain membranes); conditions: 3 nM [3H]R-α-methylhistamine, 30° C., 30 minutes
T1 construct: The source of the H3 receptors in this experiment was guinea pig brain; from tissue; host or cells: guinea pig brain membranes
T1 sequence (Q9JI35 whole entry): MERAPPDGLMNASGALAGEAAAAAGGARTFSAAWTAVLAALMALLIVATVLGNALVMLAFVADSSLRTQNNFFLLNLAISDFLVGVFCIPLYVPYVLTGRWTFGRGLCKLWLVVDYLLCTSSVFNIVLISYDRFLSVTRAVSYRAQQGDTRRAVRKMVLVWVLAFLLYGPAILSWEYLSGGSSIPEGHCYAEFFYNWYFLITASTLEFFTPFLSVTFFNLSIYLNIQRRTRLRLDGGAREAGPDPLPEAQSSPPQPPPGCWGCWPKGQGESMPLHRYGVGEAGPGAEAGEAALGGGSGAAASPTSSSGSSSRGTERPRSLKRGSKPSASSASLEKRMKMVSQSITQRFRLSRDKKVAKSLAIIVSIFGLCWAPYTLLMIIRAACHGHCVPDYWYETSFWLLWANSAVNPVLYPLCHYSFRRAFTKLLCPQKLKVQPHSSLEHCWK
Description: The source of the H3 receptors in this experiment was guinea pig brain. The animals used weighed 400-600 g. The tissue was homogenized using a Polytron in a solution of 50 mM Tris, pH 7.5. The final concentration of tissue in the homogenization buffer was 10% w/v. The homogenates were centrifuged at 1000×g for 10 minutes in order to remove clumps of tissue and debris. The resulting supernatants were then centrifuged at 50,000×g for 20 minutes in order to sediment the membranes, which were next washed 3 times in homogenization buffer (50,000×g for 20 minutes each). The membranes were frozen and stored at -70° C. until needed.
All compounds to be tested were dissolved in DMSO (dimethyl sulfoxide) and then diluted into the binding buffer (50 mM Tris, pH 7.5) such that the final concentration was 2 μg/mL with 0.1% DMSO. Membranes were then added (400 μg of protein) to the reaction tubes. The reaction was started by the addition of 3 nM [^3 H]R-α-methylhistamine (8.8 Ci/mmol) and incubated at 30° C. for 30 minutes. Bound ligand was separated from unbound ligand by filtration, and the amount of radioactive ligand bound to the membranes was quantitated by liquid scintillation spectrometry. All incubations were performed in duplicate and the standard error was less than 10% in all instances.

guinea pig ileum = assay: Guinea Pig Ileum Assay (electrical field stimulated contractions; H3 agonism/antagonism vs Rα-methylhistamine); type: cell-based; conditions: for Guinea Pig Ileum: at 1 μg/ml, 1 μM chlorpheniramine in Tyrodes buffer
Description: Male guinea pigs (450-500 g) were sacrificed by cervical dislocation. Portions of the ileum (20-40 cm) were removed and placed in Tyrodes solution (NaCl, 8.0; KCl, 0.2; MgCl2.6H2 O, 0.2; CaCl2. 0.13; NaH2 PO4. 0.06; dextrose, 1.0; NaHCO3, 1.0 g/l). The ilea were cut into 2.5 cm segments, mounted between platinum wire coaxial electrodes and placed in water-jacketed organ baths containing 25 ml of the Tyrodes solution. Bath fluid temperature was maintained at 37° C. and aerated with 95% 02-5%CO2. The muscles were suspended from isometric force transducers (Grass FT023C) under 0.3 g resting tension. Contractions were amplified on a Buxco tension monitor and recorded on a Harvard polygraph. Monophasic rectangular-wave electrical pulses were delivered to the tissues every 60 seconds from a stimulator (model S-48, Grass Instruments Co.). The ileum segments were maximally stimulated with 3 volts at 40 Hz frequency and 1 mseconds duration in 1 pulse train every 60 seconds. The duration of 1 msecond was then decreased by 0.1 msecond until the size of the contraction reached 80% of the maximal response. Once this 80% response was determined it was evoked every 60 seconds throughout the experiment. All experiments were conducted with 1μM of chlorpheniramine present in the Tyrodes buffer.
Rα-methylhistamine inhibits the electrical field stimulated contractions of the guinea pig ileum and was used as the H3 agonist reference standard. H3 agonists were studied for their ability to inhibit the electrical field stimulated contractions and their activity was expressed as a percentage of the maximum Rα-methylhistamine effect. Agonists were tested by addition of logarithmically increasing doses to the bath fluid at intervals of 1 minute. […]
Relative potency for agonists was determined from the pD2 calculations (Furchgott, R.F., The Pharmacology of Vascular Smooth Muscle. Pharm. Rev. 7, 183, 1955.) on 5 separate tissues. Relative potency for antagonists was determined from pA2 calculations (See Furchgott, above) on 15 separate tissues.

Row | Compound | H3 receptor Binding IC50 (H3 receptor) | Guinea Pig Ileum (guinea pig ileum) | IC50 (H3 receptor) | activity on the guinea pig ileum (guinea pig ileum)
1 | COC1=C(Br)C(O)C2(C=C1Br)CC(C(=O)NCCc1c[nH]cn1)=NO2 (centres unmarked) [Aerophobin-1] | 4.3 µg/mL | not active | – | –
2 | CN(C)CCCOc1c(Br)cc(CCN(C)C)cc1Br [Aplysamine-1] | – | antagonist | 833 nM | active on the guinea pig ileum as an H3 -antagonist
